{"source": "patent US20250368647A1", "about": "“NITROGEN CONTAINING CONDENSED 2,3-DIHYDROQUINAZOLINONE COMPOUNDS AS NAV1.8 INHIBITORS” (GLAXOSMITHKLINE INTELLECTUAL PROPERTY DEVELOPMENT LIMITED, priority 2022, published 2025)"}
{"molecular_target": "human Nav1.8 (Homo sapiens (Human), UniProt Q9Y5Y9)", "sequence (Q9Y5Y9 whole entry)": "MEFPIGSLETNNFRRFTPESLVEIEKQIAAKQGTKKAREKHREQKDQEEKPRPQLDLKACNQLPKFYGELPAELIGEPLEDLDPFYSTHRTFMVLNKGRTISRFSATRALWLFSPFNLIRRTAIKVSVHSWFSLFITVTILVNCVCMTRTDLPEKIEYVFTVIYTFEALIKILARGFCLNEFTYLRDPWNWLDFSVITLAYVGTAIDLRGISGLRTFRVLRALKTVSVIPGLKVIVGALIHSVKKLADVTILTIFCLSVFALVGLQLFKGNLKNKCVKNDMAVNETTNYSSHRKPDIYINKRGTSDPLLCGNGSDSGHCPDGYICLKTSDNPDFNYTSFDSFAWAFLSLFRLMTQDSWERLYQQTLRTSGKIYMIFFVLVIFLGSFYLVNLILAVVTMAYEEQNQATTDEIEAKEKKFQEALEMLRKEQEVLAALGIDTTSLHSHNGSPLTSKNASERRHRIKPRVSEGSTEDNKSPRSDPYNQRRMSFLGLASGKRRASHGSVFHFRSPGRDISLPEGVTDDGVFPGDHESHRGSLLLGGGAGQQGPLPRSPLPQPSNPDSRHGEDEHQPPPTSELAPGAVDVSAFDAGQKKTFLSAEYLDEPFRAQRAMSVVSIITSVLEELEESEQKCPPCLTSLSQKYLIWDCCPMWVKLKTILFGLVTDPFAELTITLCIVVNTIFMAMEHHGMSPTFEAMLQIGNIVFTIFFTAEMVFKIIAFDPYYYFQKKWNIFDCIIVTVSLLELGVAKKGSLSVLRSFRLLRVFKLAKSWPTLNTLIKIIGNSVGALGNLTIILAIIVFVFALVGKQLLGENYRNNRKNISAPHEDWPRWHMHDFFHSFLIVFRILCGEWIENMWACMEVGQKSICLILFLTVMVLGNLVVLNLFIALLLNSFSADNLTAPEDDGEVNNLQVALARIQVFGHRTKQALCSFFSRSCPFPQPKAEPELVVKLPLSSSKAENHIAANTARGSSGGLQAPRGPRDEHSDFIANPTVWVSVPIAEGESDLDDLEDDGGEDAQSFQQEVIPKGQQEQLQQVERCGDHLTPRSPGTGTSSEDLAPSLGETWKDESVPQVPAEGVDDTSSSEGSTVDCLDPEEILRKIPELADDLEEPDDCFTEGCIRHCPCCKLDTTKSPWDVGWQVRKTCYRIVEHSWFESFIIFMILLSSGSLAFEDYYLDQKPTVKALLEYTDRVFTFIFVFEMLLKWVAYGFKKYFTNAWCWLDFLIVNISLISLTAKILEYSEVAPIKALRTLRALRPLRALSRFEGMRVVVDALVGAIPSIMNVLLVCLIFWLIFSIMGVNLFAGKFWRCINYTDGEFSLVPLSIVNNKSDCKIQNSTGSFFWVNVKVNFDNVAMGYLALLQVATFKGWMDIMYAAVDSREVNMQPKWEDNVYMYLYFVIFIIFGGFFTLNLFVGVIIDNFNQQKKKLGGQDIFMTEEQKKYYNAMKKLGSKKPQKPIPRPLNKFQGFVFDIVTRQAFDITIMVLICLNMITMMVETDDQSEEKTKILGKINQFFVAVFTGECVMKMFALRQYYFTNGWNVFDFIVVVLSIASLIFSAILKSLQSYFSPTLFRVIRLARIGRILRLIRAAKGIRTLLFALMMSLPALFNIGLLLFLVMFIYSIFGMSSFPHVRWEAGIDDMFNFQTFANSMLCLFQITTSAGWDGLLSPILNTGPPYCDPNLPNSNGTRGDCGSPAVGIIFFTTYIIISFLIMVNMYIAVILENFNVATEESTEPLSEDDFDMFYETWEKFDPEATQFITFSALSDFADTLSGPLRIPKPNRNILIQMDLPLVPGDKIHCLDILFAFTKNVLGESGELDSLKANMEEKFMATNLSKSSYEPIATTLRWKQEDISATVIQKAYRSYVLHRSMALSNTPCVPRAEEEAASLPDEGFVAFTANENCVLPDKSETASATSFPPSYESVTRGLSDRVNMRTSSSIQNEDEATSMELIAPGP", "sequence (Q07699 19-218 partner)": "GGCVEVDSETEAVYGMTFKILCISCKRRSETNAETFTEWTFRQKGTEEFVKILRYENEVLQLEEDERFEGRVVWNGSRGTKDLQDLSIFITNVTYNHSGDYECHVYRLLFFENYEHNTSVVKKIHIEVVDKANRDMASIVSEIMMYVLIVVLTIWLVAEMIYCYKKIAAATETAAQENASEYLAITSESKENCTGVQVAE", "assay": "QPatch 48 HTX voltage-clamp electrophysiology, half inactivation state (V1/2) protocol, HEK293-Nav1.8 cells", "format": "cell-based", "details": "HEK293 cells expressing human Nav1.8, human Navβ1 and human TREK1, P2 current", "summary_of_the_method": "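HEK293 cells co-expressing Navβ1 and TREK1 were voltage-clamped from −100 mV: a 20 ms step to 0 mV, 8 s inactivation at −46 mV, 20 ms at −100 mV, then a 20 ms P2 test step to 0 mV, repeated every 15 s. P2 current was normalized to vehicle and full block, corrected for run-down, and Hill-fitted (4–6 concentrations) for IC50.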"}
{"smiles": "O=C1c2ccc(C(F)(F)F)cc2N2CN1c1ccc(=O)[nH]c1NCCCc1cc(F)ccc12", "note": "[Example 28, 8-Fluoro-3-(trifluoromethyl)-10,11,12,13-tetrahydro-19H-5,18-methanodibenzo[f,i]pyrido[2,3-b][1,4,8]triazocyclotridecine-15,19(14H)-dione]", "Nav1.8, pIC50": 7.5}
{"smiles": "C[C@@H]1NCCc2[nH]c(=O)ccc2N2CN(c3cc(Cl)c(F)cc3C2=O)c2ccc(F)cc21", "note": "[Example 122, (10S)-3-chloro-2,8-difluoro-10-methyl-10,11,12,13-tetrahydro-19H-5,18-methanodibenzo[c,f]pyrido[3,2-j][1,5,9]triazacyclotridecine-15,19(14H)-dione]", "Nav1.8, pIC50": 5.9}
{"smiles": "O=C1c2c(ccc(C(F)(F)F)c2F)N2CN1c1ccc(=O)[nH]c1CCNCc1cc(F)ccc12", "note": "[Example 45, 1,8-Difluoro-2-(trifluoromethyl)-10,11,12,13-tetrahydro-19H-5,18-methanodibenzo[c,f]pyrido[3,2-j][1,5,9]triazacyclotridecine-15,19(14H)-dione]", "Nav1.8, pIC50": 6.9}
{"smiles": "O=C1c2cc(C(F)(F)F)ncc2N2CN1c1ccc(=O)[nH]c1CCCCCc1cc(F)ccc12", "note": "[Example 21, 3^4-Fluoro-2^6-(trifluoromethyl)-1^1,1^2,2^1,2^2,2^3,2^4-hexahydro-2(3,1)-pyrido[3,4-d]pyrimidina-1(5,6)-pyridina-3(1,2)-benzenacyclooctaphane-1^2,2^4-dione]", "Nav1.8, pIC50": 7.6}
{"smiles": "O=C1c2cc(C(F)(F)F)ccc2N2CN1c1ccc(=O)[nH]c1CCCCCc1cc(F)ccc12", "note": "[Example 7, 3^4-Fluoro-2^6-(trifluoromethyl)-1^1,1^2,2^1,2^2,2^3,2^4-hexahydro-2(3,1)-quinazolina-1(5,6)-pyridina-3(1,2)-benzenacyclooctaphane-1^2,2^4-dione]", "Nav1.8, pIC50": 8.1}
{"smiles": "O=C1c2cc(C(F)(F)F)ccc2N2CN1c1ccc(=O)[nH]c1CCCc1cc(F)ccc12", "note": "[Example 2, 14-Fluoro-8-(trifluoromethyl)-17,18-dihydro-1H,6H-5,11-methanodibenzo[b,k]pyridino[3,2-f][1,5]diazacyclododecine-2,6(16H)-dione]", "Nav1.8, pIC50": 6.0}
{"smiles": "O=C1c2cc(Cl)cnc2N2CN1c1ccc(=O)[nH]c1CCCCCc1cc(F)ccc12", "note": "[Example 20, 2^6-Chloro-3^4-fluoro-1^1,1^2,2^1,2^2,2^3,2^4-hexahydro-2(3,1)-pyrido[2,3-d]pyrimidina-1(5,6)-pyridina-3(1,2)-benzenacyclooctaphane-1^2,2^4-dione]", "Nav1.8, pIC50": 7.2}
{"smiles": "O=C1c2cc(C(F)(F)F)cnc2N2CN1c1ccc(=O)[nH]c1CCCCc1cc(OC(F)(F)F)ccc12", "note": "[Example 17, 8-(Trifluoromethoxy)-2-(trifluoromethyl)-10,11,12,13-tetahydro-19H,19H-5,18-methano-dibenzo[l]pyrido[2,3-b:3′,2′-f][1,5]diazacyclotridecine-15,19(14H)-dione]", "Nav1.8, pIC50": 6.1}
{"smiles": "O=C1c2cc(Cl)c(F)cc2N2CN1c1ccc(=O)[nH]c1NCCCc1cc(F)ccc12", "note": "[Example 96, 2-Chloro-3,8-difluoro-10,11,12,13-tetrahydro-19H-5,18-methanodibenzo[f,i]pyrido[2,3-b]-[1,4,8]triazacyclotridecine-15,19(14H)-dione]", "Nav1.8, pIC50": 7.5}
{"smiles": "Cl.N#Cc1cc2c(cc1F)C(=O)N1CN2c2ccc(OC(F)(F)F)c(F)c2CNCCc2[nH]c(=O)ccc21", "note": "[Example 89, 2,9-Difluoro-15,19-dioxo-8-(trifluoromethoxy)-10,11,12,13,14,15-hexahydro-19H-5,18-methanodibenzo[c,f]pyrido[3,2-j][1,5,9]triazacyclotridecine-3-carbonitrile hydrochloride]", "Nav1.8, pIC50": 8.1}
{"smiles": "O=C1c2cc(C(F)(F)F)ccc2N2CN1c1ccc(=O)[nH]c1NCCCc1c2ccc(F)c1F", "note": "[Example 37, 8,9-Difluoro-2-(trifluoromethyl)-10,11,12,13-tetrahydro-19H-5,18-methanodibenzo[f,i]dipyrido[2,3,-b][1,4,8]triazacyclotridecine-15,19(14H)-dione]", "Nav1.8, pIC50": 7.7}
{"smiles": "O=C1c2cc(Cl)c(F)cc2N2CN1c1ccc(=O)[nH]c1CCNCc1cc(F)ccc12", "note": "[Example 43, 2-Chloro-3,8-difluoro-10,11,12,13-tetrahydro-19H-5,18-methanodibenzo[c,f]pyrido[3,2-f][1,5,9]triazacyclotridecine-15,19(14H)-dione]", "Nav1.8, pIC50": 7.4}
{"smiles": "Cl.O=C1c2cc(F)c(C(F)(F)F)cc2N2CN1c1ccc(=O)[nH]c1CCCNCc1cc(F)ccc12", "note": "[Example 107, 2^6,3^4-Difluoro-2^7-(trifluoromethyl)-1^1,1^2,2^1,2^2,2^3,2^4-hexahydro-5-aza-2(3,1)-quinazolina-1(5,6)-pyridina-3(1,2)-benzenacyclooctaphane-1^2,2^4-dione hydrochloride]", "Nav1.8, pIC50": 7.3}
{"smiles": "Cl.O=C1c2cc(Cl)c(F)cc2N2CN1c1ccc(=O)[nH]c1CCNCc1c2ccc(F)c1F", "note": "[Example 69, 2-Chloro-3,8,9-trifluoro-10,11,12,13-tetrahydro-19H-5,18-methanodibenzo[c,f]pyrido[3,2-j][1,5,9]triazacyclotridecine-15,19(14H)-dione hydrochloride]", "Nav1.8, pIC50": 7.6}
{"smiles": "Cl.O=C1c2cc(F)c(C(F)(F)F)cc2N2CN1c1ccc(=O)[nH]c1CNCCCc1cc(F)ccc12", "note": "[Example 105, 2^6,3^4-Difluoro-2^7-(trifluoromethyl)-1^1,1^2,2^1,2^2,2^3,2^4-hexahydro-7-aza-2(3,1)-quinazolina-1(5,6)-pyridina-3(1,2)-benzenacyclooctaphane-1^2,2^4-dione hydrochloride]", "Nav1.8, pIC50": 7.8}
{"smiles": "CCC1NCCc2[nH]c(=O)ccc2N2CN(c3cc(C(F)(F)F)c(F)cc3C2=O)c2ccc(F)cc21.Cl", "note": "(centres unmarked) [Example 126, 10-Ethyl-2,8-difluoro-3-(trifluoromethyl)-10,11,12,13-tetrahydro-19H-5,18-methanodibenzo[c,f]pyrido[3,2-j][1,5,9]triazacyclotridecine-15,19(14H)-dione hydrochloride]", "Nav1.8, pIC50": 7}
{"smiles": "O=C1c2ccc(C(F)(F)F)cc2N2CN1c1ccc(=O)[nH]c1CCCCOc1cc(F)ccc12", "note": "[Example 18, 3^4-Fluoro-2^7-(trifluoromethyl)-1^1,1^2,2^1,2^2,2^3,2^4-hexahydro-4-oxa-2(3,1)-quinazolina-1(5,6)-pyridina-3(1,2)-benzenacyclooctaphane-1^2,2^4-dione]", "Nav1.8, pIC50": 6.5}
{"smiles": "O=C1c2cc(C(F)(F)F)ncc2N2CN1c1ccc(=O)[nH]c1CCCCc1cc(F)ccc12", "note": "[Example 40, 8-Fluoro-2-(trifluoromethyl)-10,11,12,13-tetrahydro-19H-5,18-methanobenzo[l]dipyrido[3,4-b:3′,2′-f][1,5]diazocyclotridecine-15,19(14H)-dione]", "Nav1.8, pIC50": 6.0}
{"smiles": "O=C1c2cc(F)c(C(F)(F)F)cc2N2CN1c1ccc(=O)[nH]c1CCNCc1cc(F)ccc12", "note": "[Example 44, 2,8-Difluoro-3-(trifluoromethyl)-10,11,12,13-tetrahydro-19H-5,18-methanodibenzo[c,f]pyrido[3,2-i][1,5,9]triazacyclotridecine-15,19(14H)-dione]", "Nav1.8, pIC50": 8.6}
{"smiles": "Cl.O=C1c2cc(F)c(C(F)(F)F)cc2N2CN1c1ccc(=O)[nH]c1NCCNCc1c2ccc(F)c1F", "note": "[Example 135, 2^6,3^3,3^4-Trifluoro-2^7-(trifluoromethyl)-1^1,1^2,2^1,2^2,2^3,2^4-hexahydro-5,8-diaza-2(3,1)-quinazolina-1(5,6)-pyridina-3(1,2)-benzenacyclooctaphane-1^2,2^4-dione hydrochloride]", "Nav1.8, pIC50": 7.4}
{"smiles": "O=C1c2cc(C(F)(F)F)ccc2N2CN1c1ccc(=O)[nH]c1CNCCc1cc(F)ccc12", "note": "[Example 103, 8-Fluoro-2-(trifluoromethyl)-10,11,12,13-tetrahydro-19H-5,18-methanodibenzo[b,l]pyrido[3,2-f][1,5,9]triazacyclotridecine-15,19(14H)-dione]", "Nav1.8, pIC50": 6.4}
{"smiles": "O=C1c2cc(C(F)(F)F)cnc2N2CN1c1ccc(=O)[nH]c1CC/C=C\\Cc1cc(F)ccc12", "note": "[Example 24, 3^4-Fluoro-2^6-(trifluoromethyl)-1^1,1^2,2^1,2^2,2^3,2^4-hexahydro-2(3,1)-pyrido[2,3-d]pyrimidina-1(5,6)-pyridina-3(1,2)-benzenacyclooctaphan-5-ene-1^2,2^4-dione]", "Nav1.8, pIC50": 7.7}
{"smiles": "Cl.O=C1c2cc(Cl)c(C(F)(F)F)cc2N2CN1c1ccc(=O)[nH]c1CCNCc1cc(F)ccc12", "note": "[Example 59, 2-Chloro-8-fluoro-3-(trifluoromethyl)-10,11,12,13-tetrahydro-19H-5,18-methanodibenzo[c,f]pyrido[3,2-j][1,5,9]triazacyclotridecine-15,19(14H)-dione hydrochloride]", "Nav1.8, pIC50": 7.8}
{"smiles": "Cl.O=C1c2cc(F)c(C(F)(F)F)cc2N2CN1c1ccc(=O)[nH]c1CCNCc1cc(Cl)ccc12", "note": "[Example 66, 8-Chloro-2-fluoro-3-(trifluoromethyl)-10,11,12,13-tetrahydro-19H-5,18-methanodibenzo[c,f]pyrido[3,2-j][1,5,9]triazacyclotridecine-15,19(14H)-dione hydrochloride]", "Nav1.8, pIC50": 8.2}
{"smiles": "Cl.O=C1c2cc(C(F)(F)F)ccc2N2CN1c1ccc(=O)[nH]c1CCNCc1ccccc12", "note": "[Example 78, 2-(Trifluoromethyl)-10,11,12,13-tetrahydro-19H-5,18-methanodibenzo[c,f]pyrido[3,2-j][1,5,9]triazacyclotridecine-15,19(14H)-dione hydrochloride]", "Nav1.8, pIC50": 6.7}
{"smiles": "O=C1c2cc(C(F)(F)F)c(F)cc2N2CN1c1ccc(=O)[nH]c1NCCCc1cc(F)ccc12", "note": "[Example 90, 3,8-Difluoro-2-(trifluoromethyl)-10,11,12,13-tetrahydro-19H-5,18-methanodibenzo[f,i]-pyrido[2,3-b][1,4,8]triazacyclotridecine-15,19(14H)-dione]", "Nav1.8, pIC50": 7.7}
